In the oligonucleotide strings, read from the 5' end, every base follows the letter of its sugar. An asterisk marks phosphorothioate; unmarked linkages are phosphodiester. Other units and linkages are bracketed, terminal groups are in braces. A string of capitals states the bases alone. e = 2'-O-(2-methoxyethyl) (MOE); [5mC] = 5-methylcytosine; d = 2'-deoxy (DNA)
Experiments:
Type in all cases: in vivo
[1] = Tolerability in CD1 mice: body and organ weights (Example 21); conditions: 50 mg/kg s.c. twice per week for 6 weeks, percentage of the body weight
Procedure: Body weight was measured at the onset of the study and subsequently twice per week. The body weights of the mice are presented in Table 87 and are expressed increase in grams over the PBS control weight taken before the start of treatment. Liver, spleen, and kidney weights were measured at the end of the study, and are also presented in Table 87 as percentage of the body weight.

[2] = Tolerability in Sprague-Dawley rats: hematology assays (Example 23); parameters: RBC / WBC / Neutrophil / Lymphocyte / Platelets: unit not given here; conditions: blood
[3] = Tolerability in CD1 mice: body and organ weight (Example 25); conditions: 50 mg/kg s.c. twice per week for 6 weeks; for Kidney weight as percentage of body weight / Liver weight as percentage of body weight / Spleen weight as percentage of body weight: end of study

ISIS 416856: gapmer of Table 8 (antisense eG*eG*e[5mC]*eA*eT*dT*dG*dG*dT*dG*d[5mC]*dA*d[5mC]*dA*dG*eT*eT*eT*e[5mC]*eT)
Kidney weight [1]: 1.4% | RBC [2]: 7.7 | WBC [2]: 19

ISIS 445530: microwalk gapmer of Table 51 (antisense eG*e[5mC]*eA*eT*eT*dG*dG*dT*dG*d[5mC]*dA*d[5mC]*dA*eG*eT*eT*eT*e[5mC])
Body weight (increase over PBS control weight before start of treatment) [3]: 11 g | Kidney weight as percentage of body weight [3]: 1.5% | Liver weight as percentage of body weight [3]: 6% | Spleen weight as percentage of body weight [3]: 0.5%

ISIS 445532: microwalk gapmer of Table 51 (antisense e[5mC]*eG*eG*e[5mC]*eA*dT*dT*dG*dG*dT*dG*d[5mC]*dA*e[5mC]*eA*eG*eT*eT)
Body weight (increase over PBS control weight before start of treatment) [3]: 10 g | Kidney weight as percentage of body weight [3]: 1.6% | Liver weight as percentage of body weight [3]: 6% | Spleen weight as percentage of body weight [3]: 0.4%

From US20120083522A1, “MODULATION OF INFLAMMATORY RESPONSES BY FACTOR XI” (Isis Pharmaceuitcals, inc., priority 2009, published 2012)
